Patent publication US12060347B2 (BRISTOL-MYERS SQUIBB COMPANY, priority 2016, dated 2024)

Target: T1, human PAR4 (Homo sapiens, UniProt Q96RI0)
T1 construct: expressed in transfected cells; host or cells: HEK293 PAR4 Clone 1.2A (BMS Arctic ID 383940)
T1 sequence (Q96RI0 18-385): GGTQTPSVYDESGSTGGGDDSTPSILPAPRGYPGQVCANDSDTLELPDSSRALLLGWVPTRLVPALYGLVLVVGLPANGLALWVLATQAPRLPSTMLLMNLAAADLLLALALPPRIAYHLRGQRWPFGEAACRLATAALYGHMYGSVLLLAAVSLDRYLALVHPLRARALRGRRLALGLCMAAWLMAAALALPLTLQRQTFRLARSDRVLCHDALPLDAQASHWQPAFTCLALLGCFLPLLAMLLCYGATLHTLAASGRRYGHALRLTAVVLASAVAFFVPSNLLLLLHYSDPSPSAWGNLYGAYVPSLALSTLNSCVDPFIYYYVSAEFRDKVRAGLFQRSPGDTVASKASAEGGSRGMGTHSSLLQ
Assay: PAR4 FLIPR assay: antagonism of agonist-peptide-induced calcium mobilization in PAR4-expressing HEK293 cells
Format: cell-based
Settings: H-Ala-Phe(4-F)-[…]NH2-induced intracellular calcium mobilization, 11-point curves

SMILES | IC50 [nM]
COCc1cnc2c(-c3nc4c(C(O)c5ccccn5)cc(OC)cc4s3)cc(C)cc2n1 (stereo not drawn) [Example 167, (6-methoxy-2-(2-(methoxymethyl)-7-methylquinoxalin-5-yl)benzo[d]thiazol-4-yl)(pyridin-2-yl)methanol] | 4.5
COc1cnc2c(-c3cc4cc(OCCNS(=O)(=O)c5ccccc5)cc(Cl)c4o3)cc(C)cc2n1 [Example 39, N-(2-((7-chloro-2-(2-methoxy-7-methylquinoxalin-5-yl)benzofuran-5-yl)oxy)ethyl)benzenesulfonamide] | 10
Cc1cc(-c2nc3c(C)cc(OCCNS(=O)(=O)c4ccc(F)cc4F)cc3s2)c2ncc(OC(F)F)nc2c1 [Example 84, N-(2-(2-(2-(difluoromethoxy)-7-methylquinoxalin-5-yl)-4-methylbenzo[d]thiazol-6-yloxy)ethyl)-2,4-difluorobenzenesulfonamide] | 2.5
C=Cc1cnc2c(-c3cc4ccccc4o3)cc(C)cc2n1 [Example 131, 5-(benzofuran-2-yl)-7-methyl-2-vinylquinoxaline] | 890
COc1cnc2c(-c3nc4c(Cl)c(F)c(OC[C@@H](C)OC(=O)OCc5ccc(N)cn5)cc4s3)cc(C)cc2n1 [Example 596, (R)-(5-aminopyridin-2-yl)methyl (1-((4-chloro-5-fluoro-2-(2-methoxy-7-methylquinoxalin-5-yl)benzo[d]thiazol-6-yl)oxy)propan-2-yl) carbonate] | 130
COc1cnc2c(-c3cc4cc(OC)c(F)c(Cl)c4o3)cc(CO)cc2n1 [Example 124, (8-(7-chloro-6-fluoro-5-methoxybenzofuran-2-yl)-3-methoxyquinoxalin-6-yl)methanol] | 1.8
COC(=O)c1cc(OC)cc2sc(-c3cc(C)cc4nc(OC)cnc34)nc12 [Example 152, methyl 6-methoxy-2-(2-methoxy-7-methylquinoxalin-5-yl)benzo[d]thiazole-4-carboxylate] | 38
COc1cnc2c(-c3nc4cc(F)c(O[C@@H](C)[C@@H](C)OC(=O)Nc5cnc(C)nc5)cc4s3)cc(C)cc2c1 [Example 648, (2R,3S)-3-((5-fluoro-2-(3-methoxy-6-methylquinolin-8-yl)benzo[d]thiazol-6-yl)oxy)butan-2-yl (2-methylpyrimidin-5-yl)carbamate] | 3
COc1cc(C(O)C(C)(C)C)c2nc(-c3cc(C)cc4nc(OC)cnc34)sc2c1 (stereo not drawn) [Example 630, 1-(6-methoxy-2-(2-methoxy-7-methylquinoxalin-5-yl)benzo[d]thiazol-4-yl)-2,2-dimethylpropan-1-ol] | 1.4
COc1cnc2c(-c3nc4c(C(O)C(C)(C)C)cc(OCCOC(=O)Nc5ccncc5)cc4s3)cc(C)cc2n1 (stereo not drawn) [Example 658, 2-((4-(1-hydroxy-2,2-dimethylpropyl)-2-(2-methoxy-7-methylquinoxalin-5-yl)benzo[d]thiazol-6-yl)oxy)ethyl pyridin-4-ylcarbamate] | 3
COc1cnc2c(-c3nc4cc(F)c(OC[C@@H](C)OC(=O)Nc5cnc(OCCC(C)(C)O)nc5)nc4s3)cc(C)cc2n1 [Example 702, (R)-1-((6-fluoro-2-(2-methoxy-7-methylquinoxalin-5-yl)thiazolo[5,4-b]pyridin-5-yl)oxy) propan-2-yl (2-(3-hydroxy-3-methylbutoxy)pyrimidin-5-yl)carbamate] | 4.3
COc1ccc2nc(-c3cc(CO)cc4nc(OC)cnc34)sc2c1 [Example 127] | 8.3
COc1cnc2c(-c3cc4cc(OC)c(F)cc4o3)cc(CO)cc2n1 [Example 125, (8-(6-fluoro-5-methoxybenzofuran-2-yl)-3-methoxyquinoxalin-6-yl)methanol] | 2
COCc1cnc2c(-c3nc4c(Cl)c(F)c(OCCO)cc4s3)cc(C)cc2n1 [Example 293, 2-((4-chloro-5-fluoro-2-(2-(methoxymethyl)-7-methylquinoxalin-5-yl)benzo[d]thiazol-6-yl)oxy)ethanol] | 1
COc1cnc2c(-c3nc4cc(F)c(O[C@@H](C)[C@@H](C)OC(=O)Nc5ccnc(OCCC(C)(C)O)c5)nc4s3)cc(Cl)cc2c1 [Example 778, (2R,3S)-3-((2-(6-chloro-3-methoxyquinolin-8-yl)-6-fluorothiazolo[5,4-b]pyridin-5-yl)oxy) butan-2-yl (2-(3-hydroxy-3-methylbutoxy)pyridin-4-yl)carbamate] | 3.4
COC(=O)Nc1cccc2nc(-c3cc(C)cc4nc(OC(F)F)cnc34)sc12 [Example 80, Methyl 2-(2-(difluoromethoxy)-7-methylquinoxalin-5-yl)benzo[d]thiazol-7-ylcarbamate] | 21
COc1cnc2c(-c3nc4cc(F)c(OCCOC(=O)Nc5cnc(F)c(C)c5)nc4s3)cc(C)cc2n1 [Example 811, 2-((6-fluoro-2-(2-methoxy-7-methylquinoxalin-5-yl)thiazolo[5,4-b]pyridin-5-yl)oxy) ethyl (6-fluoro-5-methylpyridin-3-yl)carbamate] | 1.5
COc1cnc2c(-c3nc4cc(F)c(O[C@@H](C)[C@@H](C)OC(=O)Nc5ccnc(C(=O)NCC(C)(C)O)c5)cc4s3)cc(C)cc2n1 [Example 465, (2R,3S)-3-((5-fluoro-2-(2-methoxy-7-methylquinoxalin-5-yl)benzo[d]thiazol-6-yl)oxy)butan-2-yl (2-((2-hydroxy-2-methylpropyl)carbamoyl)pyridin-4-yl)carbamate] | 1.4
COc1cnc2c(-c3nc4cc(F)c(OC)cc4s3)cc(C)cc2n1 [Example 280, 5-fluoro-6-methoxy-2-(2-methoxy-7-methylquinoxalin-5-yl)benzo[d]thiazole] | 4.3
COCc1cnc2c(-c3nc4c(C)cc(OC)cc4s3)cc(C(F)(F)F)cc2n1 [Example 208, 6-methoxy-2-(2-(methoxymethyl)-7-(trifluoromethyl)quinoxalin-5-yl)-4-methylbenzo[d]thiazole] | 1.1

Now from value to molecule:

IC50 [nM] | SMILES
1.2 | COc1cnc2c(-c3nc4cc(F)c(OC[C@@H](C)OC(=O)Nc5cnc(C)nc5)cc4s3)cc(C#N)cc2n1 [Example 819, (R)-1-((2-(7-cyano-2-methoxyquinoxalin-5-yl)-5-fluorobenzo[d]thiazol-6-yl)oxy)propan-2-yl (2-methylpyrimidin-5-yl)carbamate]
1.7 | COc1cnc2c(-c3nc4cc(F)c(OC[C@@H](C)OC(=O)Nc5cnc(OCCO)nc5)nc4s3)cc(C)cc2n1 [Example 685, (R)-1-((6-fluoro-2-(2-methoxy-7-methylquinoxalin-5-yl)thiazolo[5,4-b]pyridin-5-yl)oxy) propan-2-yl (2-(2-hydroxyethoxy)pyrimidin-5-yl)carbamate]
0.3 | COc1cc(NC(=O)O[C@H](C)[C@H](C)Oc2cc3sc(-c4cc(C)cc5nc(OC)cnc45)nc3cc2F)ccn1 [Example 412, (2R,3S)-3-((5-fluoro-2-(2-methoxy-7-methylquinoxalin-5-yl)benzo[d]thiazol-6-yl)oxy)butan-2-yl (2-methoxypyridin-4-yl)carbamate]
1.8 | COc1cnc2c(-c3nc4cc(F)c(OC[C@@H](C)OC(=O)Nc5cnc(O[C@H](C)CO)nc5)nc4s3)cc(C)cc2n1 [Example 692, (R)-1-((6-fluoro-2-(2-methoxy-7-methylquinoxalin-5-yl)thiazolo[5,4-b]pyridin-5-yl)oxy) propan-2-yl (2-(((R)-1-hydroxypropan-2-yl)oxy)pyrimidin-5-yl)carbamate]
3.4 | COc1cnc2c(-c3nc4cc(F)c(OC[C@@H](C)OC(=O)Nc5ccc(C(=O)N6CCO[C@@H](CO)C6)nc5)cc4s3)cc(C)cc2n1 [Example 480, (R)-1-((5-fluoro-2-(2-methoxy-7-methylquinoxalin-5-yl)benzo[d]thiazol-6-yl)oxy)propan-2-yl (6-((R)-2-(hydroxymethyl)morpholine-4-carbonyl)pyridin-3-yl)carbamate]
4.8 | COc1cnc2c(-c3nc4cc(F)c(OC[C@@H](C)OC(=O)Nc5ccc(C(=O)N6CC[C@@H](O)C6)nc5)cc4s3)cc(C)cc2n1 [Example 475]
2 | COc1cnc2c(-c3nc4cc(F)c(OC[C@@H](C)OC(=O)Nc5ccc(OCC(F)(F)CO)nc5)cc4s3)cc(C)cc2n1 [Example 574, (R)-1-((5-fluoro-2-(2-methoxy-7-methylquinoxalin-5-yl)benzo[d]thiazol-6-yl)oxy)propan-2-yl (6-(2,2-difluoro-3-hydroxypropoxy)pyridin-3-yl)carbamate]
0.9 | COc1cnc2c(-c3nc4cc(F)c(OC[C@@H](C)OC(=O)Nc5ccc(CCO)nc5)nc4s3)cc(C)cc2n1 [Example 691, (R)-1-((6-fluoro-2-(2-methoxy-7-methylquinoxalin-5-yl)thiazolo[5,4-b]pyridin-5-yl)oxy) propan-2-yl (6-(2-hydroxyethyl)pyridin-3-yl)carbamate]
0.7 | COc1cnc2c(-c3nc4cc(F)c(O[C@@H](C)[C@@H](C)OC(=O)Nc5ccnc(C(=O)NCCO)c5)cc4s3)cc(C)cc2n1 [Example 451, (2R,3S)-3-((5-fluoro-2-(2-methoxy-7-methylquinoxalin-5-yl)benzo[d]thiazol-6-yl)oxy)butan-2-yl (2-((2-hydroxyethyl)carbamoyl)pyridin-4-yl)carbamate]
1.8 | CCOc1cnc2c(-c3nc4cc(F)c(O[C@@H](C)[C@@H](C)OC(=O)Nc5cnc(CCO)nc5)cc4s3)cc(C)cc2n1 [Example 566, (2R,3S)-3-((2-(2-ethoxy-7-methylquinoxalin-5-yl)-5-fluorobenzo[d]thiazol-6-yl)oxy)butan-2-yl (2-(2-hydroxyethyl)pyrimidin-5-yl)carbamate]
